Series [1] concerns E.coli DH10B pBCSK- PDC-3. The series can be described thus: MIC by agar dilution, cefotaxime alone or with boronate, strain producing PDC-3. Format: cell-based. To be noted: E. coli possessing the P. aeruginosa AmpC; BATSI added to cefotaxime. (In general: In agar dilution, organisms are placed on agar that contains the substance at set levels.)
Series [2] deals with PDC-3 (Pseudomonas aeruginosa, UniProt P24735, T105A). The format is biochemical.
Series [3] deals with E.coli DH10B. The series can be described thus: microbe, parasite or virus in culture. The format is cell-based. Particulars: Escherichia coli.
Series [4] concerns O=C(Cc1cccs1)N[C@@H]1C(=O)N2C(C(=O)O)=C(/C=C/c3ccc([N+](=O)[O-])cc3[N+](=O)[O-])CS[C@H]12. Put plainly: purified protein, by the assay type. To be noted: other: substrate; used to correct Ki; pH 7.4.

A value given as a limit tells only on which side of the number the result lay.

In the case of `O=C(Cc1cccs1)N[C@@H](Cn1cc(C(=O)O)nn1)B(O)O` [Compound 13a, (1R)-2-(4-Carboxy-[1,2,3]triazol-1-yl)-1-(2-thienylacetylamino)ethaneboronic acid], the “reduction in MIC of cefotaxime” value in series [1] is reported as “five dilution (2 log) reduction”. Further, the “energetic contribution to binding of the carboxylate (ΔΔGbind)” value in series [2] (13a compared with 13f, from Ki vs PDC-3, ΔΔGbind = −RTln Ki ref/Ki) came out at 9.2 kJ/mol. For the same compound, the “improvement in recognition caused by ring hopping (ΔΔG)” value in series [2] (13a compared with Reference compound B) amounted to 2.9 kJ/mol.

As to `O=C(Cc1cccs1)N[C@@H](Cn1ccnn1)B(O)O` [Compound 13f, (1R)-2-([1,2,3]triazol-1-yl)-1-(2-thienylacetylamino)ethaneboronic acid], in series [2] (13f compared with Ref Compound A, from Ki vs PDC-3), the “contribution of the methyltriazole to binding (ΔΔG)” value worked out at 2.1 kJ/mol.

For the compound `CO/N=C(\C(=O)N[C@@H]1C(=O)N2C(C(=O)O)=C(COC(C)=O)CS[C@H]12)c1csc(N)n1` [TAX, cefotaxime], in series [3], the MIC was under 0.125 mg/L.

As a reminder, the Km is the substrate concentration at which the rate is half of its maximum. `O=C(Cc1cccs1)N[C@@H]1C(=O)N2C(C(=O)O)=C(/C=C/c3ccc([N+](=O)[O-])cc3[N+](=O)[O-])CS[C@H]12` [nitrocefin, reference compound]: the Km in series [2] (read-out: Km of nitrocefin, PDC-3, substrate, used to correct Ki) is 14.6 ± 2.2 µM.

Regarding P99 (Enterobacter cloacae), in series [4], the Km amounted to 20.03 ± 2.05 µM.

(Values after paper PMC5744665 (Journal of medicinal chemistry, 2015).)
